Source: ChEMBL document CHEMBL1201862, “PubChem BioAssay data set” (2004)
Calls of active or inactive are those of the source.

Tests used:
Genome polyprotein = Genome polyprotein (dengue virus type 2, UniProt P29990); test: Dengue-2 NS5 methyltransferase inhibitors, primary screen, biochemical, confirmation dose response (AID 588689); format: functional
[1] = molecular target: T1, Hepatocyte nuclear factor 4-alpha (Homo sapiens, UniProt P41235); format: functional, cell-based;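 also: biochemical luminescence-based dose-response counterscreen measuring inhibition of HNF4 dimerization, run alongside a screen for blockers of ABHD5–perilipin-5 interaction; split luciferase complementation of HNF4 fusion proteins in cell lysate measuring dimerization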
T1 sequence (P41235 whole entry): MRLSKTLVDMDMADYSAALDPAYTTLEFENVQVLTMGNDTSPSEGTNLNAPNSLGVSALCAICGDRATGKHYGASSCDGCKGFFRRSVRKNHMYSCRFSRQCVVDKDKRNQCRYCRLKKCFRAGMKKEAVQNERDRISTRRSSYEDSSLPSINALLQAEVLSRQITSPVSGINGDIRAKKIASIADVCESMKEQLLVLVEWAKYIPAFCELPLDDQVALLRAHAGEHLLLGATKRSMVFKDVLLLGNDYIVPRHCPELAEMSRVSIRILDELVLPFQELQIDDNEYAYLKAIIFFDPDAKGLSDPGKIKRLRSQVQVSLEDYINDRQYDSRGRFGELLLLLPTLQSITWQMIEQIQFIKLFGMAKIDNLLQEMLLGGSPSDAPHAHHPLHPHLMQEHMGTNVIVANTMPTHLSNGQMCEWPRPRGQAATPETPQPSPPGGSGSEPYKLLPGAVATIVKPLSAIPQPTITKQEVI

[2] = molecular target: 26S proteasome non-ATPase regulatory subunit 14 (Homo sapiens, UniProt O00487); test: inhibition of proteasome subunit RPN11 – biochemical, fluorescence polarization, uHTS hits, confirmation (AID 602368); format: functional
[3] = molecular target: 72 kDa type IV collagenase (Homo sapiens, UniProt P08253); test: Dose Response validation of uHTS RPN11 inhibitor hits using a MMP-2 Fluorescence assay.; format: functional
Prothrombin = Prothrombin (Bos taurus, UniProt P00735); test: thrombin inhibition, dose response, biochemical, fluorescence polarization, uHTS hits (AID 602369); format: functional
Caspase-3 = molecular target: T2, Caspase-3 (Homo sapiens, UniProt P42574); format: functional;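 also: Dose-response selectivity test against caspase-3 for candidate inhibitors of sentrin-specific proteases (SENPs)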
T2 sequence (P42574 whole entry): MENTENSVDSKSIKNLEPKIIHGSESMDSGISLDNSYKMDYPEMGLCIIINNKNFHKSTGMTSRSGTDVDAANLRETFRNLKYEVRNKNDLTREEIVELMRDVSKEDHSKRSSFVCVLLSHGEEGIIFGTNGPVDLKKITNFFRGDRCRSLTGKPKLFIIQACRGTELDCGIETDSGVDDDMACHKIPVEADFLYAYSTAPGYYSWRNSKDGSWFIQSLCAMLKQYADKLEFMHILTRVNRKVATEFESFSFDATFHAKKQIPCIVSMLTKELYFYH

[4] = molecular target: T3, Sentrin-specific protease 7 (Homo sapiens, UniProt Q9BQF6); format: functional;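 also: Luminescence-based dose-response confirmation of ultra-high-throughput screening hits, measuring inhibition of SENP7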
T3 sequence (Q9BQF6 whole entry): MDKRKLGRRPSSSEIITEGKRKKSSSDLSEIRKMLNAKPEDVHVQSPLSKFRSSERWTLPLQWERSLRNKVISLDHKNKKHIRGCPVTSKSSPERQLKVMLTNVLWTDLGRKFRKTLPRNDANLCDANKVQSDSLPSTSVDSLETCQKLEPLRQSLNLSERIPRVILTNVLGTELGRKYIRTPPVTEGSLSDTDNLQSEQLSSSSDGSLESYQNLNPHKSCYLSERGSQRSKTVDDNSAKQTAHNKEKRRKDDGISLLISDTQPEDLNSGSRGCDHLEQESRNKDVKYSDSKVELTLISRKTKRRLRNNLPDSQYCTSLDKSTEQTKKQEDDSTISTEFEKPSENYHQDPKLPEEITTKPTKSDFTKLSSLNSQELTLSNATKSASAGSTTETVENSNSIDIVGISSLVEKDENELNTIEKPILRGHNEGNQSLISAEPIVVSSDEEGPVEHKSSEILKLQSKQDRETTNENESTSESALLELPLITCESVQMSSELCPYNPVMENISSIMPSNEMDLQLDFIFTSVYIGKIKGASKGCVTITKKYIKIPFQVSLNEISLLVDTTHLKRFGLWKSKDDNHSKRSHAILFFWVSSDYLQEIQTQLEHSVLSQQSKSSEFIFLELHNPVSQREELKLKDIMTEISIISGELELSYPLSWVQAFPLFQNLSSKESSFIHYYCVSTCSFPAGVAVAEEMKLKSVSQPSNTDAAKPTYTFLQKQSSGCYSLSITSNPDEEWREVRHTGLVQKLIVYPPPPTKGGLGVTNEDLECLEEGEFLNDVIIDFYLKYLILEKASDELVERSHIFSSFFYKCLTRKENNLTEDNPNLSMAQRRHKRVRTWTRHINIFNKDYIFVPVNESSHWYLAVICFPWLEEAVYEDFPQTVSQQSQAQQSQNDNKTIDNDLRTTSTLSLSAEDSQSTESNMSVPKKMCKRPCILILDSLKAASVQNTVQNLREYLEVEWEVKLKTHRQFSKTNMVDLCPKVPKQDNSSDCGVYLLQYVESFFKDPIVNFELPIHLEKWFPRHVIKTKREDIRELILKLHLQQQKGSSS

[5] = molecular target: T4, Sentrin-specific protease 6 (Homo sapiens, UniProt Q9GZR1); format: functional;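 also: Luminescence-based dose-response confirmatory assay of SENP6 inhibition, following up an ultra-high-throughput screen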
T4 sequence (Q9GZR1 whole entry): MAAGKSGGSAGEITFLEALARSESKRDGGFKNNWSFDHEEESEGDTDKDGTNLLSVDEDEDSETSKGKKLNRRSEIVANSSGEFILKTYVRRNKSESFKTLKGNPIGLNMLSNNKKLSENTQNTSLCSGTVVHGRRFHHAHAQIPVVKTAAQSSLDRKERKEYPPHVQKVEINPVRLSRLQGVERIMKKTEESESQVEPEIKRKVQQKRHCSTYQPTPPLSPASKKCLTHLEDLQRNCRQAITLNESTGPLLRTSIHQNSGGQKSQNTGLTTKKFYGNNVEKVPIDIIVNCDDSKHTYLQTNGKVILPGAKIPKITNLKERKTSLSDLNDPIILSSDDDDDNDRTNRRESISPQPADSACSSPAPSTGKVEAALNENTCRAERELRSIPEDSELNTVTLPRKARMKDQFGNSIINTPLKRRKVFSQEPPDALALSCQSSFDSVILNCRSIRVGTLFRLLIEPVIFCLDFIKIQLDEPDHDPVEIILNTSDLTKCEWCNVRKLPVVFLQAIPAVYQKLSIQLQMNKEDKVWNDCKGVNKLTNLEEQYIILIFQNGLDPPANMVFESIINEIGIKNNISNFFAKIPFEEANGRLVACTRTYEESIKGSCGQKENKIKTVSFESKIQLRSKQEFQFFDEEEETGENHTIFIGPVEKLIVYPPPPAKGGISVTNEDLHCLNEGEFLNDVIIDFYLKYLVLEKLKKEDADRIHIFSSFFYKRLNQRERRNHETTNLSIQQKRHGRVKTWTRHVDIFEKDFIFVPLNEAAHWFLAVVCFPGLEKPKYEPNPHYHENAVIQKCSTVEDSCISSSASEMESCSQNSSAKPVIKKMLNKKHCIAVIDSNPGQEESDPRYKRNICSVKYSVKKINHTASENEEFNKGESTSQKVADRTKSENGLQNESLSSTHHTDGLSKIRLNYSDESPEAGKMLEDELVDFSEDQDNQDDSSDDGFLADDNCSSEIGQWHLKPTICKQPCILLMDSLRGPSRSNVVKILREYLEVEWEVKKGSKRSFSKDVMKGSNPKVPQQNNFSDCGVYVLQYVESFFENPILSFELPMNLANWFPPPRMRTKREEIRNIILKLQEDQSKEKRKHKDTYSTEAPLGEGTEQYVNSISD

[6] = molecular target: T5, Sentrin-specific protease 8 (Homo sapiens, UniProt Q96LD8); format: functional;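 also: luminescence read-out of SENP8 inhibition, dose-response confirmation following an ultra-high-throughput screen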
T5 sequence (Q96LD8 whole entry): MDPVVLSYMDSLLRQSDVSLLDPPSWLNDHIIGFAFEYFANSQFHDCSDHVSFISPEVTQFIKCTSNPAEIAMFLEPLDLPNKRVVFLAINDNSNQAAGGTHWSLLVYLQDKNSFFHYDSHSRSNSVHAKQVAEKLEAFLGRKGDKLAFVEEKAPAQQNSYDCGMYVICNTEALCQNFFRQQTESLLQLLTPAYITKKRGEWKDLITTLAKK

[7] = molecular target: T6, Endoribonuclease toxin MazF (Escherichia coli K-12, UniProt P0AE70); test: MazF toxin RNase activators, dose response, biochemical, fluorescence, single-stranded RNA substrate, uHTS hits (AID 588481); format: functional
T6 sequence (P0AE70 whole entry): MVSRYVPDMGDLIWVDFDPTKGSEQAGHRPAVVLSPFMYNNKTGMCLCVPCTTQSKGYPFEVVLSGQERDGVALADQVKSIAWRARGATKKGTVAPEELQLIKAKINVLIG

[8] = molecular target: T6, Endoribonuclease toxin MazF; test: fluorescent RNA oligo signal without MazF, dose response, counter-screen for MazEF activator project, biochemical, fluorescence, single-stranded RNase substrate (AID 588502); format: functional
Protein skinhead-1 = molecular target: T7, Protein skinhead-1 (Caenorhabditis elegans, UniProt P34707); format: functional
T7 sequence (P34707 whole entry): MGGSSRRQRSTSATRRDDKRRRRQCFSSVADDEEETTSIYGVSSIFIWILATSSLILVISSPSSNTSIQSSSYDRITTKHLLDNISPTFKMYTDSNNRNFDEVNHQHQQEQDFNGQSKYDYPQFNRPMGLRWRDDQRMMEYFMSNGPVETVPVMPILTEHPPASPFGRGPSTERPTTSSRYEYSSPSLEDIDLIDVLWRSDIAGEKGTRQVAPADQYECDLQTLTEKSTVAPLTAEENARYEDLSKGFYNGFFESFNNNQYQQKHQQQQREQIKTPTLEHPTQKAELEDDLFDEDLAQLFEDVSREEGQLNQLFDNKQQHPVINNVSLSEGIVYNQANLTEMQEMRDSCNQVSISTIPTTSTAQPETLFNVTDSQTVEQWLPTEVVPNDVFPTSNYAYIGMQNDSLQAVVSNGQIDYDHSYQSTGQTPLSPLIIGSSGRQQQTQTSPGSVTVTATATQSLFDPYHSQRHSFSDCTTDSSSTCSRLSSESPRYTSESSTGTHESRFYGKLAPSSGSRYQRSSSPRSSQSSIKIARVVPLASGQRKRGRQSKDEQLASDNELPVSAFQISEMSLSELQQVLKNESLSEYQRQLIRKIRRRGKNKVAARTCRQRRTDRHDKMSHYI

[9] = cytotoxicity in HEK-293T cells, dose response, cytotoxicity control for BCR NF-kB inhibitor project, luminescence, B-cell screen hits (AID 489021); format: functional, cell-based;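 also: HEK-293T cells carrying an NF-kB luciferase reporter; cells exposed to compound for about 14 hours before viability readout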
[10] = molecular target: T8, RNA-binding protein pos-1 (Caenorhabditis elegans, UniProt G5EF15); test: inhibitors of POS-1/mex-3 RNA binding, dose response, biochemical, fluorescence polarization (AID 1964);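 also: purified POS-1 fused to maltose binding protein made in E. coli; potency of compounds blocking POS-1 binding to fluorescent RNA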
T8 sequence (G5EF15 whole entry): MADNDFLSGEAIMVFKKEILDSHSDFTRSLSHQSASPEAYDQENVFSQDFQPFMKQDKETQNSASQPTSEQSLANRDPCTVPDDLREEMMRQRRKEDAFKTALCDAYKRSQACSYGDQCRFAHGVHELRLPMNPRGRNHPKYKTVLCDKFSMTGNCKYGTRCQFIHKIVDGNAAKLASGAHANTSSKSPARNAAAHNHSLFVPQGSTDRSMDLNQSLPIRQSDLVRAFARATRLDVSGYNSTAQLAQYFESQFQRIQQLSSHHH

[11] = molecular target: T9, Zinc finger protein mex-5 (Caenorhabditis elegans, UniProt Q9XUB2); test: MEX-5/TCR-2 RNA interaction inhibitors, dose response, biochemical, C. elegans, fluorescence polarization (AID 1960)
T9 sequence (Q9XUB2 whole entry): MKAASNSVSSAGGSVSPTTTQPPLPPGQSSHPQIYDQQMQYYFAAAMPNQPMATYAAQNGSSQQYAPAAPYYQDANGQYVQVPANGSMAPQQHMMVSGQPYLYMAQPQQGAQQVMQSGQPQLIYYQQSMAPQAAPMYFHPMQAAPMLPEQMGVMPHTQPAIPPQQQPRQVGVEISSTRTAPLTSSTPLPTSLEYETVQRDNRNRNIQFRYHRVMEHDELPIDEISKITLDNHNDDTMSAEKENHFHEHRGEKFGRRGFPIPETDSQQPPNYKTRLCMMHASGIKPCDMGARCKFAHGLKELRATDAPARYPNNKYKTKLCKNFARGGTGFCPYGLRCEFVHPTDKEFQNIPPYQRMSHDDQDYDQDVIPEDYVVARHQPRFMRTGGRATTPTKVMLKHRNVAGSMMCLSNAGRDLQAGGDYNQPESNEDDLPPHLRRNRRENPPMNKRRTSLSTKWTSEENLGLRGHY

Chain of 26S proteasome non-ATPase regulatory subunit 14 (O00487 whole entry): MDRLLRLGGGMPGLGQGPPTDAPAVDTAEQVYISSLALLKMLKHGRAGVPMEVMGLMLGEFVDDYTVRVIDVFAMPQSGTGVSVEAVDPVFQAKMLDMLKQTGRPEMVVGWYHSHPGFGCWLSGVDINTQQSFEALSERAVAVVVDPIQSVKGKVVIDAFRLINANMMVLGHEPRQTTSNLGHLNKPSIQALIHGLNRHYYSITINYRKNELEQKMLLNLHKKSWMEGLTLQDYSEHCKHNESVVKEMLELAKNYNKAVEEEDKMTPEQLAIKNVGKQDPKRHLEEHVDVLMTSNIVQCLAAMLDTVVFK
Chain of 72 kDa type IV collagenase (P08253 whole entry): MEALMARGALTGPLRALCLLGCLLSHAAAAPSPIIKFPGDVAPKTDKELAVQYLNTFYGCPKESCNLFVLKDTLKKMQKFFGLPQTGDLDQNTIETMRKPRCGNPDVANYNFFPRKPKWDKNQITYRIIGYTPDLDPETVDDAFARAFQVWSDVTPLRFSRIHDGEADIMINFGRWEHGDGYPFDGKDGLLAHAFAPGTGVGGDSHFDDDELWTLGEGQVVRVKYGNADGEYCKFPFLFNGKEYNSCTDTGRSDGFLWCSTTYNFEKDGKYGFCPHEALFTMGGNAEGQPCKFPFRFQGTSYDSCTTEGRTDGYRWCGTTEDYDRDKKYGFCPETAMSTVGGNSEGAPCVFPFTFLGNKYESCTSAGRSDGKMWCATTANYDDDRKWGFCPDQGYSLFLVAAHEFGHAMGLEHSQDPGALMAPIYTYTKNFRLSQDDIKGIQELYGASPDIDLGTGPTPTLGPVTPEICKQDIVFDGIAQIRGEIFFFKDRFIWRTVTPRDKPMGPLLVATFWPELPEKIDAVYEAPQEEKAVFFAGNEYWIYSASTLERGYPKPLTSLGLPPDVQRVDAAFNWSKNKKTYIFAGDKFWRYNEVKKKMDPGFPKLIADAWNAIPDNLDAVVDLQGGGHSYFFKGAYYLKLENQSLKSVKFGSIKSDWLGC
Chain of Genome polyprotein (P29990 2492-3391 limits assumed): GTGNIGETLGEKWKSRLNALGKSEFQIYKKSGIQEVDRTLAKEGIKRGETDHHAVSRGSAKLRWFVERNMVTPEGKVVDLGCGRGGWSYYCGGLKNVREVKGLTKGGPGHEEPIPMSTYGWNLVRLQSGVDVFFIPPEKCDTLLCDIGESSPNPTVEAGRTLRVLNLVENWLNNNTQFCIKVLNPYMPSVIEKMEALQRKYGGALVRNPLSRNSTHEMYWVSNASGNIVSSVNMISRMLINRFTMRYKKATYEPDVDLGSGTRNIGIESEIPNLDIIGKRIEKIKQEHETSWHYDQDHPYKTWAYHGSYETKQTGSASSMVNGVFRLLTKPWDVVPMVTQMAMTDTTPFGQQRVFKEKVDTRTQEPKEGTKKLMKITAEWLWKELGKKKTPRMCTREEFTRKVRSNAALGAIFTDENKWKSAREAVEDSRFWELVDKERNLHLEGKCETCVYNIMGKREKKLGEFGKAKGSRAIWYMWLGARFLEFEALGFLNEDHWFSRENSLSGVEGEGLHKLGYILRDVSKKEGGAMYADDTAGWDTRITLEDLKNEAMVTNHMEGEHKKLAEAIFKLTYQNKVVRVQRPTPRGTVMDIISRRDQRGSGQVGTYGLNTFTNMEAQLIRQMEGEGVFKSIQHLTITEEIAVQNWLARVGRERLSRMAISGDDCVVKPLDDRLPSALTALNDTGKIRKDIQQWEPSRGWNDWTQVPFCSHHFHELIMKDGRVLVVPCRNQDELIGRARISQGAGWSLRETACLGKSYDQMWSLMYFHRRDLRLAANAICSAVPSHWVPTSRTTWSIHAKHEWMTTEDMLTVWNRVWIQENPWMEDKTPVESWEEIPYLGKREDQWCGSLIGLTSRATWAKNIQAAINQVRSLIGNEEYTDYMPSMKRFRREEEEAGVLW

For `CC(=O)OCC1=C(C(=O)O)N2C(=O)C(NC(=O)CCn3nc(C(F)(F)F)c(Br)c3C3CC3)C2SC1` (stereo not given), the IC50 (Genome polyprotein) was 54.8 µM (active) and the IC50 [1] was 17.7 µM (inactive).

With `COc1cc(/C=C2/SC(=S)N(CC(=O)Nc3nc4ccccc4s3)C2=O)cc(OC)c1OC` the IC50 [2] was 20.2 µM (active), the IC50 [3] was > 100 µM (inactive) and the IC50 (Prothrombin) was 23.5 µM (active).

For `O=C(NCc1ccccc1)C(c1ccc(-c2ccccc2)cc1)n1c(=O)c(-c2ccco2)nc2ccccc21` (stereo not given), the IC50 [1] was 3.34 µM (active).

For `CN(C)c1ccc(C(=O)/C=C/c2ccccc2)cc1`, the IC50 (Caspase-3) was 8.33 µM (active), the IC50 [4] was 5.32 µM (active) and the IC50 [5] was 11.6 µM (active). The IC50 [6] was 14.3 µM (active), the EC50 [7] was > 99 µM (inactive) and the EC50 [8] was > 99 µM (inactive). For the same compound, the IC50 (Protein skinhead-1) was > 100 µM (inactive).

For `CCCCn1c(/N=C/c2ccc(N(C)C)cc2)nc2ccccc21`, the IC50 [2] was 5.14 µM (active), the IC50 [3] was > 100 µM (inactive) and the IC50 (Prothrombin) was 7.12 µM (active).

With `COc1ccc(/C=C2/SC(=S)N(CCCC(=O)Nc3ccc(O)cc3)C2=O)cc1OC` the IC50 [9] was > 80 µM (inactive), the IC50 [2] was 25.2 µM (active) and the IC50 [3] was > 100 µM (inactive). For the same compound, the IC50 (Prothrombin) was 31.8 µM (active).

For `CCOc1ccc(N2C(=O)/C(=C/Nc3ccnn3Cc3ccncc3)c3ccccc3C2=O)cc1`, the EC50 [10] was > 300 µM (not active), the EC50 [11] was > 300 µM (not active) and the IC50 [2] was 23.9 µM (active). For the same compound, the IC50 [3] was > 100 µM (inactive) and the IC50 (Prothrombin) was 24.6 µM (active).
